One series is described as follows: clinical. Further details: species or system human. To be noted: in vivo. An excerpt: Objectives: to investigate the metabolic pathways of paliperidone and excretion of paliperidone and its metabolites in healthy adult male subjects, both CYP2D6 poor and extensive metabolizers, after administration of a single 1-mg oral dose of ^14C-paliperidone. In addition, to evaluate the safety and tolerability of paliperidone, as well as the relationship between genotypes (CYP2D6, CYP3A4, CYP3A5, UGT1A1, and UGT1A6) and exposure to paliperidone and its metabolites.
Methodology: Single-center, single-dose open-label study of the absorption, metabolism, and excretion (AME) of paliperidone in healthy men (3 extensive and 3 poor metabolizers based on CPY2D6 phenotype). […] Each subject received a single oral dose of ^14C-paliperidone with total radioactivity below […] (16 μCi). Blood samples for plasma pharmacokinetic profile were obtained immediately before study drug administration and 0.5, 1, 1.5, 3, 6, 12, 16, 36, 48, 72, 96, 120, 144 and 168 hours postdose. Blood samples were obtained 2, 4, 8, and 24 hours postdose for determination of ^14C in whole blood. Samples for determination of serum creatinine were obtained 2, 4, 8, and 24 hours postdose. Urine was collected immediately prior to drug administration and from 0-4, 4-8, 8-12, 12-16, 16-24, 24-36, 36-48, 48-72, 96-120, 120-144, and 144-168 hours after study drug administration. Fecal samples were colleted per each stool, once before study drug administration and in the period from 0-168 hours after study drug administration. Collections of urine and feces (per 24 hours) were to continue beyond 168 hours, to a maximum of 336 hours (Day 15) for subjects who excrete radioactivity slowly (2 latest 24-hour urine collections each >2% of total radioactive dose) or have <7 feces stool samples over the 0 to 168-hour period. ^14C radioactivity was measured in plasma, urine, and feces. Aliquots of the 0- through 24-hour urine collections were analyzed for cretinine. Plasma concentrations of paliperidone and risperidone were determined by means of a validated LC-MS/MS method. The ^14C-labeled moiety in plasma and urine was determined by liquid scintillation counting. For all plasma samples, the lower limits of quantification for paliperidone and risperidone were 0.100 ng/mL. For all plasma and urine samples the lower limits of quantification for ^14C-palieridone was 72 dpm/mL (=2.0 n g-eq/mL).
Number of Subjects (Planned and Analyzed): Six healthy men, 3 extensive and 3 poor metabolizers based on CYP2D6 phenotype were to participate in the study. Five subjects, 3 extensive and 2 poor metabolizers, received a single dose of ^14C-paliperidone, completed the study (i.e., completed all assessments through Day 8) and were considered valuable for safety (the Safety Analysis Set), as well as for pharmacokinetics.
Test Product, Dose and Mode of Administration Batch No.: Single oral 0.988-mg dose of ^14C-paliperidone, oral solution (aqueous formulation at a final concentration of 0.0984 mg/mL). Batch No.: unlabeled paliperidone oral solution: ZR076477EIA031 (manufacturing date: 23 Apr. 2003, retest date: 23 Oct. 2004): ^14C-paliperidone: 1763 (expiration date: not applicable)
Criteria for Evaluation: Pharmacokinetics: Plasma paliperidone. ^14C radioactivity and metabolite profiles were determined. Plasma Cmax, tmax, AUClast, AUC24, AUC∞, λZ, t1/2term, CL/F of ^14C and paliperidone were estimated by non-compartmental analysis. Based on the individual urine excretion data and on the serum creatinine concentrations, Ae, Ae, % dose, CLR, CLR,24h and CLer and paliperidone and CLGFR, and CLact of paliperidone were estimated. The excretion half-life of ^14C in urine was also estimated based on excretion rate-time profiles.
Statistical Methods: Pharmacokinetics: Plasma concentrations of ^14C and paliperdone as well as estimates for pharmacokinetic parameters were listed and graphically presented, and the excretion analysis of total radioactivity in plasma, urine and feces were summarized. […]

Series [1] in a line: Plasma protein binding / unbound fraction of paliperidone and its enantiomers. The format is in vitro ADME, human. The conditions noted are these: human. An excerpt:
Objectives: The primary objective of this study was to investigate the single-dose pharmacokinetics of immediate-release (IR) paliperidone, after oral administration, in subjects having moderate hepatic impairment (“hepatically-impaired subjects”) compared with subjects having normal hepatic function (“healthy subjects”). The secondary objective was to document the plasma protein binding and disposition of the enantiomers of paliperidone. In addition, the tolerability and safety profile of IR paliperidone was compared between hepatically impaired subjects and healthy subjects. Criteria for Evaluation: Pharmacokinetics: Plasma and urine concentrations of the paliperidone enantiomers (+) R078543 and (−) R078544 were determined using an LC-MS/MS method. Concentrations of paliperidone were calculated as the sum of the enantiomer concentrations. In addition, serum and urine concentrations of creatinine were determined for the calculation of CLCR. The protein binding and unbound fraction was determined for the 2 paliperidone enantiomers. The unbound fraction for paliperidone was calculated.

The nature of series [2]: Safety and tolerability of 1 mg IR paliperidone in healthy and hepatically-impaired subjects. The format is in vivo, human. As to the method: Methodology: This was a single-dose, parallel-group, open-label, single-center, Phase I study of IR paliperidone in subjects having either normal or moderately impaired hepatic function. The groups, consisting of 10 subjects each, were demographically matched with respect to age, weight, sex, and ethnicity. The study consisted of a screening period of up to 3 weeks and an open-label, single-dose treatment period (Days 1 through 5). On Day 1, a single dose of 1 mg IR paliperidone oral solution was administered after a fast of at least 10 hours; subjects continued to fast for 4 hours following study drug administration. The 96-hour follow-up consisted of serial sample collection of blood and urine for pharmacokinetic analysis and safety and tolerability assessments. Subjects remained confined to the study site through the 72-hour pharmacokinetics sampling, and consumed standard institutional meals while in the study site. Subjects were released after the 72-hour sampling, then returned to the study site on Day 5 before the 96-hour pharmacokinetics sampling: end-of-study procedures were performed immediately hereafter. A blood sample for DNA isolation was collected to allow for genetic analysis as necessary. Safety: Adverse events, clinical laboratory tests, including prolactin, vital sign measurements, physical examinations, and 12-lad electrocardiograms (ECGs) were analyzed to assess safety. Safety: All subjects were analyzed; statistical analyses were description [? Does info need to be added here?].

The mark [3] stands for this setting: hepatically-impaired subjects (n = 10).

The values that follow come from patent US20070197591A1, “USE OF PALIPERIDONE FOR THE TREATMENT OF A MENTAL DISORDER IN A PSYCHIATRIC PATIENT WITH REDUCED HEPATIC FUNCTION” (priority 2005, published 2007).

The structures appear in SMILES notation.

Consider `Cc1nc2n(c(=O)c1CCN1CCC(c3noc4cc(F)ccc34)CC1)CCCC2O` (centres unmarked) [Paliperidone, paliperidone], for which the “effect of genotype (CYP2D6, UGT1A1 or UGT1A6) on the plasma exposure of TR and UD” value in “clinical” is on record as “No effect of genotype”. In “clinical” (male, human), the “share of UD excreted by means of filtration” value is listed as “About 50%”. The CL renal in the series “clinical” (male, human, CLR) is 53.1 ± 9.47 mL/min. The time of peak concentration (Tmax) (usually the time from dosing to the highest level) in “clinical” (male, human, po) is 1.33 ± 0.289 h; in the series “clinical” (male, human, po, tmax), 1.3 h. Moreover, in the series “clinical” (male, human, po, 7 days), the “cumulative urinary excretion of unchanged paliperidone” value is on record as 59%. The AUC (as a rule, concentration integrated over time) in “clinical” (male, human, po, AUC24) is 111 ± 22 ng·h/mL. Moreover, in “clinical” (male, human, po, AUC∞), the total exposure AUC(0-inf) (as a rule, total exposure, with the tail of the curve extrapolated) was determined as 187 ng·h/mL. Moreover, the peak level in the series “clinical” (male, human, po, Cmax) (Cmax) was 8.85 ng/mL. The unbound share (fraction unbound) – broadly, the share of the substance not bound to proteins or other matrix – in series [1] (Healthy Subjects (n = 10)) turned out to be 0.279; in series [1] (Hepatically-Impaired Subjects (n = 10; paliperidone n = 8)), 0.353. Besides, the relative increase in unbound fraction vs healthy subjects in series [1] (vs healthy subjects, read-out: unbound fraction higher in hepatically-impaired subjects) is ~0.27. Further, the tolerability result in series [2] (1 mg, healthy and hepatically-impaired subjects) was “tolerated equally well”. The “clinically important abnormal ECG values (including QT values)” value in series [2] (both groups) is on record as “no subjects had clinically important abnormal ECG values”. In addition, in series [2] (both groups), the orthostatic hypotension result is listed as “no subject in either group met the criteria for orthostatic hypotension”. In addition, the “subjects with treatment-emergent increase in hepatic enzymes” value in series [2] (healthy subjects) and in series [2] (hepatically-impaired subjects) was 1 throughout. Further, the entries for the “subjects with increases in prolactin levels reported as adverse events” value in series [2] (healthy subjects (n = 10)) and in series [2] (setting [3]) were 6 and 8, respectively. The subjects reporting dizziness in series [2] (setting [3]) came out at 2.
